In the supplement of paper PMC11061612:

How the values were obtained:
[1] = tested on: TT (Thyroid Gland Carcinoma); experiment: Bliss excess, mean over the matrix (fraction); higher = more synergy
Outline: (§1)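 Cell lines in DMEM/F12 or RPMI with 10% FBS were plated in 1536-well plates, held 24 hours at 37°C, 5% CO2, then given two-drug dose matrices for 72 hours (DMSO typically 0.2%). Viability was read by CellTiter-Glo 2.0 luminescence and scaled as inhibition from 0 (vehicle wells) to 1 (blank wells). Combination Emax is the second-highest inhibition in the matrix; Bliss excess is observed combination effect minus expected EA + EB − EA·EB, EA and EB being single-agent effects.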

[2] = tested on: NCI-H2066 (Squamous Cell Lung Carcinoma); experiment: as above
Outline: as §1

[3] = tested on: ECC10 (Gastric Carcinoma); experiment: as above
Outline: as §1

IGR-37 (Melanoma) [4] = experiment: as above
Outline: as §1

[5] = tested on: NCI-H1581 (Non-Small Cell Lung Carcinoma); experiment: as above
Outline: as §1

FU97 (Gastric Carcinoma) [6] = experiment: as above
Outline: as §1

[7] = tested on: CCK-81 (Colorectal Carcinoma); experiment: as above
Outline: as §1

U-2-OS (Osteosarcoma) [8] = experiment: as above
Outline: as §1

[9] = tested on: BICR22 (Oral Cavity Carcinoma); experiment: as above
Outline: as §1

[10] = tested on: ONS-76 (Other Solid Carcinomas); experiment: as above
Outline: as §1

[11] = tested on: CAPAN-2 (Pancreatic Carcinoma); experiment: as above
Outline: as §1

[12] = tested on: VCaP (Prostate Carcinoma); experiment: as above
Outline: as §1

[13] = tested on: COLO-320-HSR (Colorectal Carcinoma); experiment: as above
Outline: as §1

NY (Osteosarcoma) [14] = experiment: as above
Outline: as §1

[15] = tested on: NCI-H1666 (Lung Adenocarcinoma); experiment: as above
Outline: as §1

[16] = tested on: PANC-10-05 (Pancreatic Carcinoma); experiment: as above
Outline: as §1

[17] = tested on: KARPAS-422 (B-Cell Non-Hodgkin's Lymphoma); experiment: as above
Outline: as §1

[18] = tested on: NCI-H64 (Small Cell Lung Carcinoma); experiment: as above
Outline: as §1

[19] = tested on: TT (Thyroid Gland Carcinoma); experiment: combination Emax (second highest fraction inhibited in the dose matrix, 72 h); higher = more inhibition; extreme values may be limits of the assay
Outline: as §1

[20] = tested on: NCI-H2066 (Squamous Cell Lung Carcinoma); experiment: as above
Outline: as §1

[21] = tested on: ECC10 (Gastric Carcinoma); experiment: as above
Outline: as §1

IGR-37 (Melanoma) [22] = experiment: as above
Outline: as §1

[23] = tested on: NCI-H1581 (Non-Small Cell Lung Carcinoma); experiment: as above
Outline: as §1

FU97 (Gastric Carcinoma) [24] = experiment: as above
Outline: as §1

[25] = tested on: CCK-81 (Colorectal Carcinoma); experiment: as above
Outline: as §1

U-2-OS (Osteosarcoma) [26] = experiment: as above
Outline: as §1

[27] = tested on: BICR22 (Oral Cavity Carcinoma); experiment: as above
Outline: as §1

[28] = tested on: ONS-76 (Other Solid Carcinomas); experiment: as above
Outline: as §1

[29] = tested on: CAPAN-2 (Pancreatic Carcinoma); experiment: as above
Outline: as §1

[30] = tested on: VCaP (Prostate Carcinoma); experiment: as above
Outline: as §1

[31] = tested on: COLO-320-HSR (Colorectal Carcinoma); experiment: as above
Outline: as §1

NY (Osteosarcoma) [32] = experiment: as above
Outline: as §1

[33] = tested on: NCI-H1666 (Lung Adenocarcinoma); experiment: as above
Outline: as §1

[34] = tested on: PANC-10-05 (Pancreatic Carcinoma); experiment: as above
Outline: as §1

[35] = tested on: KARPAS-422 (B-Cell Non-Hodgkin's Lymphoma); experiment: as above
Outline: as §1

[36] = tested on: NCI-H64 (Small Cell Lung Carcinoma); experiment: as above
Outline: as §1
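Throughout, for Bliss excess, mean over the matrix: after 72 h of two-drug dosing.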

Compound	Bliss excess [1]	Bliss excess [2]	Bliss excess [3]	Bliss excess (IGR-37 (Melanoma) [4])	Bliss excess [5]	Bliss excess (FU97 (Gastric Carcinoma) [6])	Bliss excess [7]	Bliss excess (U-2-OS (Osteosarcoma) [8])	Bliss excess [9]	Bliss excess [10]	Bliss excess [11]	Bliss excess [12]	Bliss excess [13]	Bliss excess (NY (Osteosarcoma) [14])	Bliss excess [15]	Bliss excess [16]	Bliss excess [17]	Bliss excess [18]	combination Emax [19]	combination Emax [20]	combination Emax [21]	combination Emax (IGR-37 (Melanoma) [22])	combination Emax [23]	combination Emax (FU97 (Gastric Carcinoma) [24])	combination Emax [25]	combination Emax (U-2-OS (Osteosarcoma) [26])	combination Emax [27]	combination Emax [28]	combination Emax [29]	combination Emax [30]	combination Emax [31]	combination Emax (NY (Osteosarcoma) [32])	combination Emax [33]	combination Emax [34]	combination Emax [35]	combination Emax [36]
C[C@@H](Nc1cc(F)cc(F)c1)c1cc(C(=O)N(C)C)cc2c(=O)cc(N3CCOCC3)oc12 [AZD8186] + CC(=O)c1c(C)c2cnc(Nc3ccc(N4CCNCC4)cn3)nc2n(C2CCCC2)c1=O [Palbociclib] (first compound max 10 µM, 7x7, partner max 10 µM)	0.0582	-0.0299	0.08	0.0795	0.085	0.0755	0.0824	0.0498	-0.0275	0.0763	0.0182	0.0706	0.0312	0.0895	-0.0433	-0.0689	0.018	0.0127	0.416	0.319	0.661	0.464	0.651	0.386	0.418	0.391	0.192	0.424	0.213	0.371	0.382	0.408	0.454	0.383	0.707	0.469
C[C@@H](Oc1cc(-c2cnn(C3CCNCC3)c2)cnc1N)c1c(Cl)ccc(F)c1Cl [Crizotinib] + CC1=C(C(=CC=C1)Cl)NC(=O)C2=CN=C(S2)NC3=CC(=NC(=N3)C)N4CCN(CC4)CCO [Dasatinib] (first compound max 10 µM, 7x7, partner max 2 µM)	-0.0751	-0.0202	-0.0263	-0.0317	-0.0363	-0.0237	0.0191	0.0199	0.0433	0.0996	0.0443	-0.0665	-0.0425	0.0882	-0.0103	0.0003	0.0411	-0.0238	0.274	0.587	0.679	0.645	0.359	0.446	0.892	0.617	0.89	0.894	0.78	0.587	0.699	0.519	0.807	0.813	0.886	0.594
C[C@@H](Oc1cc(-c2cnn(C3CCNCC3)c2)cnc1N)c1c(Cl)ccc(F)c1Cl [Crizotinib] + Cn1cnc2c(F)c(Nc3ccc(Br)cc3Cl)c(C(=O)NOCCO)cc21 [Selumetinib] (first compound max 10 µM, 7x7, partner max 10 µM)	0.0207	-0.0245	-0.0116	0.0066	0.0228	-0.0414	-0.0256	0.0015	-0.0493	-0.0482	0.0244	-0.0622	-0.0696	-0.0158	-0.0892	0.006	-0.063	-0.012	0.479	0.513	0.858	0.922	0.519	0.319	0.794	0.831	0.281	0.65	0.639	0.652	0.614	0.279	0.503	0.643	0.723	0.56
CS(=O)(=O)CCNCc1ccc(-c2ccc3ncnc(Nc4ccc(OCc5cccc(F)c5)c(Cl)c4)c3c2)o1 [Lapatinib] + Cn1cnc2c(F)c(Nc3ccc(Br)cc3Cl)c(C(=O)NOCCO)cc21 [Selumetinib] (first compound max 10 µM, 7x7, partner max 10 µM)	-0.0416	-0.0156	-0.0082	-0.0934	0.031	-0.0116	-0.0522	-0.0563	0.128	-0.0123	0.0147	-0.0677	0.0181	0.0033	0.064	0.0247	0.0289	-0.0224	0.305	0.338	0.951	0.856	0.395	0.906	0.944	0.647	0.924	0.748	0.424	0.182	0.264	0.329	0.839	0.556	0.562	0.14
O=C(c1cc(Cc2n[nH]c(=O)c3ccccc23)ccc1F)N1CCN(C(=O)C2CC2)CC1 [Olaparib] + CC1(C)CCC(CN2CCN(c3ccc(C(=O)NS(=O)(=O)c4ccc(NCC5CCOCC5)c([N+](=O)[O-])c4)c(Oc4cnc5[nH]ccc5c4)c3)CC2)=C(c2ccc(Cl)cc2)C1 [Venetoclax] (first compound max 10 µM, 7x7, partner max 1 µM)	-0.0158	-0.0521	0.0155	0.0143	-0.0035	-0.0322	-0.0382	-0.0331	-0.0428	-0.014	-0.0398	-0.0434	0.0038	0.0029	-0.0661	-0.059	0.0071	0.0167	0.208	0.136	0.706	0.3	0.234	0.104	0.148	0.109	0.0823	0.17	0.0502	0.101	0.176	0.188	0.104	0.125	0.611	0.166
O=C(c1cc(Cc2n[nH]c(=O)c3ccccc23)ccc1F)N1CCN(C(=O)C2CC2)CC1 [Olaparib] + CN(CC[C@H](CSC1=CC=CC=C1)NC2=C(C=C(C=C2)S(=O)(=O)NC(=O)C3=CC=C(C=C3)N4CCC(CC4)[C@H](C5=CC=CC=C5C6=CC=C(C=C6)Cl)O)S(=O)(=O)C(F)(F)F)CCO [AZD4320] (first compound max 10 µM, 7x7, partner max 1 µM)	0.0271	-0.097	0.0135	0.0028	0.0118	-0.0426	-0.0283	-0.0213	0.0041	-0.0216	-0.0461	-0.0444	0.016	0.0263	-0.0702	-0.0548	-0.0348	-0.0325	0.538	0.351	1	0.275	0.3	0.212	0.124	0.202	0.255	0.181	0.462	0.128	0.19	0.195	0.124	0.164	0.925	0.95
O=C(c1cc(Cc2n[nH]c(=O)c3ccccc23)ccc1F)N1CCN(C(=O)C2CC2)CC1 [Olaparib] + COc1nnc2ccc(N3CCC(c4ccc(OCCN5CCN(C)C(=O)[C@H]5C)cc4)CC3)nn12 [AZD5153] (first compound max 10 µM, 7x7, partner max 1 µM)	-0.0615	-0.0865	-0.0196	-0.0984	0.0078	-0.0372	-0.0643	-0.0312	-0.0477	-0.0463	-0.0267	-0.082	-0.0311	-0.0877	-0.0544	-0.0072	-0.0132	-0.0338	0.48	0.286	0.786	0.58	0.506	0.762	0.756	0.285	0.0626	0.474	0.186	0.707	0.373	0.473	0.409	0.401	0.66	0.239
O=C(c1cc(Cc2n[nH]c(=O)c3ccccc23)ccc1F)N1CCN(C(=O)C2CC2)CC1 [Olaparib] + Cc1c2c(nn1C)CSCc1cc(n(C)n1)CSc1cc(c3ccccc3c1)OCCCc1c(C(=O)O)n(C)c3c-2c(Cl)ccc13 [AZD5991] (first compound max 10 µM, 7x7, partner max 1 µM)	-0.0273	-0.0539	0.0111	-0.0419	0.0183	-0.0169	-0.0311	-0.0394	-0.0317	-0.038	-0.0426	-0.0247	-0.0304	-0.0239	-0.0669	-0.0739	-0.0071	0.0017	0.168	0.2	0.738	0.151	0.972	0.207	0.785	0.0686	0.108	0.17	0.044	0.958	0.836	0.426	0.111	0.159	0.967	0.148
